Laboratory results from patent US7951364B2, “CaR receptor as a mediator of migratory cell chemotaxis and/or chemokinesis” (The General Hospital Corporation, priority 2000, dated 2011).
Several values for one entry are separate records, joined by “and”; a condition that tells them apart may be missing. Equal entries are not always repeated.

Columns and labels:
CaR = molecular target: T1, CaR (Homo sapiens, UniProt P41180); test: Cytosolic calcium changes in purified monocytes (Indo-1/AM, flow cytometry); assay type: cell-based
T1 construct: endogenous in cells; host or cells: peripheral blood CD14+ monocytes, sorted by FACS
T1 sequence (P41180 20-1078): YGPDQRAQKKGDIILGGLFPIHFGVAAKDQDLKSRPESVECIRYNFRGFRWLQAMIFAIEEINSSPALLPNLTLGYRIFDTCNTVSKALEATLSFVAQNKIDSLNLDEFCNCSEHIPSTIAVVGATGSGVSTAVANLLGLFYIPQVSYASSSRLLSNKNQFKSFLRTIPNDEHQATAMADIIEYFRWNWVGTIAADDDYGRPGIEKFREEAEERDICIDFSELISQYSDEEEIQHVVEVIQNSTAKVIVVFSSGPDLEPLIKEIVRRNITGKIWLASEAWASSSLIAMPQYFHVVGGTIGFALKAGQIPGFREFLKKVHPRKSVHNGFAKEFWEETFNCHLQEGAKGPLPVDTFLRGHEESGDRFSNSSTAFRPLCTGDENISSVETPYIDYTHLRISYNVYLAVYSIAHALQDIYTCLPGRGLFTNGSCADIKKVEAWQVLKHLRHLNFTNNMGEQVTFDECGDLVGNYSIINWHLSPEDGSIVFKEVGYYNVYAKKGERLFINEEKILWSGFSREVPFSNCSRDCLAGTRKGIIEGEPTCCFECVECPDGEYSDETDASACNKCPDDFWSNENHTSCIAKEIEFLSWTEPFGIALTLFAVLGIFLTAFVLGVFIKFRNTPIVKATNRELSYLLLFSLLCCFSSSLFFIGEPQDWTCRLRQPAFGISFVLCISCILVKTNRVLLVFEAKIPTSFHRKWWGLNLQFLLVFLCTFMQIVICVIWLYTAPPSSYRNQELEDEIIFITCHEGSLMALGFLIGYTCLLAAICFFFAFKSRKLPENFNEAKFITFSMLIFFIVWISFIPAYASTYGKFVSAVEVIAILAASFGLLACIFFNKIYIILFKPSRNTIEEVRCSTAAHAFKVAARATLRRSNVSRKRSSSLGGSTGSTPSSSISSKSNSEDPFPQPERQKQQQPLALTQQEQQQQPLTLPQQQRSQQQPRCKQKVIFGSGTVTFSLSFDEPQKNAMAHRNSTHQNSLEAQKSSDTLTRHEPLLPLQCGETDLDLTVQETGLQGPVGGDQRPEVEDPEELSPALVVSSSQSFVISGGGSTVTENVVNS
Protocol: (§1) Preparation of peripheral blood CD14^+ monocytes. Low density cells were isolated from human and mouse peripheral blood using Ficoll-Hypaque (Pharmacia, Piscataway, N.J.). CD14^+ monocytes were purified by sorting on FACSVantage (Becton Dickinson, San Jose, Calif.) based on CD14 expression. Purified cells were incubated in either calcium-free medium (Hanks' Balanced Salt Solution 1×, CellGro, Hermdon. VA) or Iscove's Medium 1×(Mod) (CellGro, Herndon, Va.) which contains 1.5 mM Ca++. […] Cells were incubated for up to 24 hours in 5% CO2 humidified air. Monocytes were then detached from the plate using a cell scraper. All calcium concentrations indicated in the presentation of the data represent the total Ca^++ present in the basal medium plus any added Ca^++.
Cytosolic calcium changes. Purified monocytes were loaded with Indo-1/AM (Molecular Probes, Eugene, Oreg.). Cells were collected on FACSVantage for 0.30 sec to establish a baseline emission value for Indo-1/AM. […] Data acquisition then continued for up to 5 minutes.

CD14^+ monocytes = test: Transmigration assay (monocyte chemotaxis, transwell); assay type: cell-based, human
Protocol: as §1
Transmigration assays. Transwells (5 μm pore size polycarbonate membrane, 12 mm diameter) (Costar, Corning, N.Y.) were used to assess cell migration using an established methodology (25). The concentration of Ca^++ in IMDM (CellGro, Herndon, Va.) in the upper and lower chambers of the transwell were adjusted according to a checkerboard analysis of chemotaxis. Calcium concentrations varied from 0 mM to 6.5 mM. Purified monocytes (1×10^4) were then placed in the top chamber with 150 μl of IMDM (CellGro, Hemdon, Va.). 500 μl of the medium was added to the bottom of the well and supplemented with varying concentrations of Ca^++ or with Ca^++ plus 10 ng/ml of MCP-1, 100 ng/ml of SDF-1α or 10 ng/ml of MIP-1α (PeproTech, Rocky Hills, N.Y.). Cells were incubated at 37° C. for 3 hours. To study inhibition of chemotaxis, cells were subsequently incubated with wortmannin (1 μM for 20 minutes at 37° C.), herbimycin (1 μM for 20 minutes at 37° C.) or genistein (1 μg/ml for 20 minutes at 37° C.), before their use in transmigration assays. At the end of the experiment, cells were then harvested from the lower chamber and counted using a hemocytometer.

CCR-2 = test: Chemokine receptor expression on monocytes by flow cytometry: CCR-2; assay type: cell-based, human
Protocol: Chemokine receptor expression and flow cytometric analysis.
Table 1: Exposure of CD14^+ monocytes to Ca^++ enhances CCR2 expression in a dose dependent manner. Monocytes were exposed to varying concentrations of Ca^++ and to the selective CaR activator, NPS R-467 (1 μM), or to NPS S-467 (1 μM) in the presence of 1.5 mM Ca^++. The median fluorescence intensity for CCR2 expression was measured for each Ca^++ concentration and in the presence of NPS R-467 or S-467. Mean values +/−s.e.m. from three independent experiments are shown.

[1] = test system: monocytes (Mac-1 positive mononuclear cells); test: Biologic activity in vivo: subcutaneous injection, monocyte infiltration at injection site; design: species or system C57BL/6 mice; details: tissue excised 18 hours later, CaCl2 5.0 mM, NPS R-467 10 μM
Protocol: Biologic activity of ionic calcium in vivo. C57BL/6 mice (Jackson Laboratories) were injected subcutaneously at a marked, shaved spot on the abdomen with 20 μl of 5 mM CaCl2 or 20 μl of MCP-1 at a concentration of 10 ng/ml, with a combination of MCP-1 and 5 mM CaCl2 or with 10 μM NPS R-467 in PBS. Control mice were injected subcutaneously with 20 μl PBS alone. All subcutaneously injected agents contained less than 0.004 ng/ml of LPS by the limulus assay (Sigma) as previously described (Bleul, C. C., et al., J Exp Med, 1996, 184:1101-1109). Mice were sacrificed by CO2 asphyxiation 18 hours after injection, and injection sites were excised, snap-frozen and 4 μm cryosections were obtained and stained with hematoxylin and eosin. Immunocytochemistry was performed on the frozen sections using alkaline phosphatase-conjugated Mac-1 antibody (Pharmingen) as previously described and assessed by light microscopy (Bleul, C. C., et al., supra).

[2] = molecular target: calcium-sensing receptor (CaR) (Homo sapiens, UniProt P41180); details: cited from earlier work

## [Ca+2].[Cl-].[Cl-] [Ca^++, calcium chloride]
CaR; 4.5 mM Ca^++
  Increase in cytosolic calcium: Sustained increases
CaR; monocytes, dose dependent
  Extracellular Ca^++ concentration giving maximal cytosolic Ca^++ response: 4.5 mM
CD14^+ monocytes
  Ca^++ concentration giving maximal chemotaxis: 4.5 mM
  Ca^++ concentration giving peak migration in response to MCP-1: 4.5 mM
CCR-2
  Cell surface CCR-2 expression: up-modulation
  Mean fluorescent intensity -CCR-2 Mean +/− s.e.m.: 278 +/− 39 and 296 +/− 35 and 307 +/− 35
[1]
  Accumulation of mononuclear cells staining positive for Mac-1 at injection site: Accumulation
[2]
  Ca^++ concentration at which activation of the receptor is maximal: 5 mM
